Results published in the supplement of paper PMC12137928.
Where a name gives a salt, the structure may show the parent alone.

Legend:
HCT116 [1] = test: efficacy (maximum % inhibition of viability vs DMSO); higher = more cytotoxic; details: 72 h
In short: (§1)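 HCT116 cells were plated at 250 per well in 1536-well plates and allowed 5 h to attach. CellTiter-Glo luminescence was normalized to vehicle as 0% and positive control as -100%, followed by pattern correction. Four-parameter Hill fits provided IC50 and maximal efficacy.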

HCT116 [2] = details: 72 h
In short: as §1

| SMILES | IC50 cell viability (HCT116 [2]; ICRF193 0 nM) [µM] | IC50 cell viability (HCT116 [2]; ICRF193 200 nM) [µM] | efficacy (HCT116 [1]; ICRF193 0 nM) [%] | efficacy (HCT116 [1]; ICRF193 200 nM) [%] |
| --- | --- | --- | --- | --- |
| NC(=O)C1(N2CCCCC2)CCN(CCCN2c3ccccc3CCc3ccc(Cl)cc32)CC1 [Clocapramine] | 23.1 | 18.3 | 117 | 105 |
| Nc1nc(Cl)nc2c1ncn2[C@@H]1O[C@H](CO)[C@@H](O)[C@@H]1F [Clofarabine] | 0.146 | 0.231 | 45.9 | 65.2 |
| O=C(Nc1ccc(Cl)cc1)Nc1ccc(Cl)c(C(F)(F)F)c1 [Cloflucarban] | 5.8 | 5.8 | 98.6 | 98.1 |
| CCN(CC)CCOc1ccc(C(=C(Cl)c2ccccc2)c2ccccc2)cc1 [Clomifene citrate] | 18.3 | 20.6 | 110 | 120 |
| CN(C)CCCN1c2ccccc2CCc2ccc(Cl)cc21 [Clomipramine hydrochloride] | 18.3 | 20.6 | 74.9 | 90.5 |
| Clc1cccc(Cl)c1NC1=NCCN1 [Clonidine] | > 45.8 | 4.11 |  | 68.5 |
| COC(=O)[C@H](c1ccccc1Cl)N1CCc2sccc2C1 [Clopidogrel bisulfate] | 18.3 | 23.1 | 67.2 | 76.8 |
| Cc1cc(C(C#N)c2ccc(Cl)cc2)c(Cl)cc1NC(=O)c1cc(I)cc(I)c1O (stereo not drawn) [Closantel] | 9.2 | 10.3 | 70.3 | 77.1 |
| Clc1ccccc1C(c1ccccc1)(c1ccccc1)n1ccnc1 [Clotrimazole] | 18.3 | 16.4 | 102 | 94.7 |
| CC(C)c1nc(CN(C)C(=O)N[C@@H](CCN2CCOCC2)C(=O)N[C@H](CC[C@H](Cc2ccccc2)NC(=O)OCc2cncs2)Cc2ccccc2)cs1 [Cobicistat] | 14.6 | > 45.8 | 40.1 |  |
| O=C(c1ccc(F)c(F)c1Nc1ccc(I)cc1F)N1CC(O)([C@@H]2CCCCN2)C1 [Cobimetinib] | 18.3 | 9.2 | 55.7 | 75.9 |
| COc1cc2c(c(OC)c1OC)-c1ccc(OC)c(=O)cc1[C@@H](NC(C)=O)CC2 [Colchicine] | 0.0326 | 0.0326 | 74 | 69.5 |
| Cc1nc2c([nH]1)-c1ccccc1N(C(=O)c1ccc(NC(=O)c3ccccc3-c3ccccc3)cc1)CC2 [Conivaptan hydrochloride] | > 45.8 | 29.1 |  | 60 |
| COc1c(OCCCN2CCOCC2)ccc2c1N=C(NC(=O)c1cnc(N)nc1)N1CCN=C21 [Copanlisib] | 0.944 | 0.473 | 59.1 | 65.9 |
| CN(C)CCC=C1c2ccccc2C=Cc2ccccc21 [Cyclobenzaprine hydrochloride] | > 45.8 | 20.6 |  | 52.3 |
| C[C@H]1O[C@@H](O[C@H]2[C@@H](O)C[C@H](O[C@H]3[C@@H](O)C[C@H](O[C@H]4CC[C@@]5(C)[C@H](CC[C@@H]6[C@@H]5CC[C@]5(C)[C@@H](C7=CC(=O)OC7)CC[C@]65O)C4)O[C@@H]3C)O[C@@H]2C)C[C@H](O)[C@@H]1O [DIGITOXIN] | 0.0651 | > 45.8 | 73.1 |  |
| CO[C@H]1C[C@H](O[C@H]2[C@H](C)O[C@@H](O[C@@H]3/C(C)=C/C[C@@H]4C[C@@H](C[C@]5(C=C[C@H](C)[C@@H](C6CCCCC6)O5)O4)OC(=O)[C@@H]4C=C(C)[C@@H](O)[C@H]5OC/C(=C\C=C\[C@@H]3C)[C@]54O)C[C@@H]2OC)O[C@@H](C)[C@@H]1O [DORAMECTIN] | 13 | 7.3 | 112 | 106 |
| CC(C)(C)c1nc(-c2cccc(NS(=O)(=O)c3c(F)cccc3F)c2F)c(-c2ccnc(N)n2)s1 [Dabrafenib] | 23.1 | 9.2 | 46.2 | 81.6 |
| CN(C)/N=N/c1[nH]cnc1C(N)=O [Dacarbazine] | 7.3 | 16.4 | 66.6 | 91.9 |
| COC(=O)N[C@H](C(=O)N1CCC[C@H]1c1ncc(-c2ccc(-c3ccc(-c4cnc([C@@H]5CCCN5C(=O)[C@@H](NC(=O)OC)C(C)C)[nH]4)cc3)cc2)[nH]1)C(C)C [Daclatasvir dihydrochloride] | 29.1 | 29.1 | 103 | 101 |
| C#C[C@]1(O)CC[C@H]2[C@@H]3CCC4=Cc5oncc5C[C@]4(C)[C@H]3CC[C@@]21C [Danazol] | > 45.8 | 20.6 |  | 47.9 |
| CN(C)[C@@H](CCOc1cccc2ccccc12)c1ccccc1 [Dapoxetine] | 29.1 | 23.1 | 71.4 | 70.9 |
| Cc1nc(Nc2ncc(C(=O)Nc3c(C)cccc3Cl)s2)cc(N2CCN(CCO)CC2)n1 [Dasatinib] | 29.1 | 23.1 | 74.6 | 105 |
| COc1cccc2c1C(=O)c1c(O)c3c(c(O)c1C2=O)C[C@@](O)(C(C)=O)C[C@@H]3O[C@H]1C[C@H](N)[C@H](O)[C@H](C)O1 [Daunorubicin] | 0.461 | 0.0517 | 102 | 83.8 |
| O=C(O)c1ccc(-n2nc(-c3ccccc3O)nc2-c2ccccc2O)cc1 [Deferasirox] | 18.3 | 29.1 | 99.7 | 109 |
| Oc1ccc(Cl)cc1Cc1cc(Cl)ccc1O [Dichlorophen] | 10.3 | 8.2 | 106 | 99.9 |
| O=c1c(C2CC(c3ccc(-c4ccc(Br)cc4)cc3)Cc3ccccc32)c(O)sc2ccccc12 (stereo not drawn) [Difethialone] | 23.1 | 18.3 | 46.7 | 68.3 |
| CC(=O)O[C@H]1C[C@H](O[C@H]2[C@@H](O)C[C@H](O[C@H]3[C@@H](O)C[C@H](O[C@H]4CC[C@@]5(C)[C@H](CC[C@@H]6[C@@H]5CC[C@]5(C)[C@@H](C7=CC(=O)OC7)CC[C@]65O)C4)O[C@@H]3C)O[C@@H]2C)O[C@H](C)[C@H]1O [Digitoxin 3'''-Acetate] | 0.231 | 0.116 | 75 | 87.8 |

Now from value to compound, other results behind:

| IC50 cell viability (HCT116 [2]; ICRF193 0 nM) [µM] | IC50 cell viability (HCT116 [2]; ICRF193 200 nM) [µM] | SMILES | efficacy (HCT116 [1]; ICRF193 0 nM) [%] | efficacy (HCT116 [1]; ICRF193 200 nM) [%] |
| --- | --- | --- | --- | --- |
| 29.1 | 29.1 | CC(=O)N(O)CCCCCNC(=O)CCC(=O)N(O)CCCCCNC(=O)CCC(=O)N(O)CCCCCN [Deferoxamine mesylate] | 99.1 | 105 |
| > 45.8 | 16.4 | CN(C)[C@@H]1C(O)=C(C(N)=O)C(=O)[C@@]2(O)C(O)=C3C(=O)c4c(O)ccc(Cl)c4[C@@H](O)[C@H]3C[C@@H]12 [Demeclocycline hydrochloride] |  | 40 |
| > 45.8 | 2.98 | Cc1cc(N)c2ccccc2[n+]1CCCCCCCCCC[n+]1c(C)cc(N)c2ccccc21 [Dequalinium dichloride] |  | 55.3 |
| 29.1 | 25.9 | COC(=O)[C@H]1[C@H]2C[C@@H]3c4[nH]c5ccccc5c4CCN3C[C@H]2C[C@@H](OC(=O)c2cc(OC)c(OC)c(OC)c2)[C@@H]1OC [Deserpidine] | 59.1 | 48.2 |
| > 45.8 | 18.3 | CNCCCN1c2ccccc2CCc2ccccc21 [Desipramine hydrochloride] |  | 47.5 |
| 0.231 | 0.231 | C[C@H]1O[C@@H](O[C@H]2CC[C@@]3(C)[C@H](CC[C@@H]4[C@@H]3C[C@@H](O)[C@]3(C)[C@@H](C5=CC(=O)OC5)CC[C@]43O)C2)C[C@H](O)[C@@H]1O[C@H]1C[C@H](O)[C@H](O[C@H]2C[C@H](O)[C@H](O[C@@H]3O[C@H](CO)[C@@H](O)[C@H](O)[C@H]3O)[C@@H](C)O2)[C@@H](C)O1 [Deslanoside] | 85.6 | 78.1 |
| > 45.8 | 18.3 | N=C(N)c1ccc(OCCCOc2ccc(C(=N)N)cc2Br)c(Br)c1 [Dibromopropamidine dihydrochloride] |  | 51.6 |
| 20.6 | 20.6 | N#CC(c1ccc(Cl)cc1)c1c(Cl)cc(-n2ncc(=O)[nH]c2=O)cc1Cl (stereo not drawn) [Diclazuril] | 46.5 | 56.7 |
| 29.1 | > 45.8 | C/C=C(/C(=C/C)c1ccc(O)cc1)c1ccc(O)cc1 [Dienestrol] | 74.2 |  |
| 18.3 | 23.1 | CC/C(=C(/CC)c1ccc(O)cc1)c1ccc(O)cc1 [Diethylstilbestrol] | 52.4 | 47.5 |
| 29.1 | 23.1 | CC(C(O)c1ccccc1)N(C)CCOC(c1ccccc1)c1ccccc1 (stereo not drawn) [Difeterol] | 83 | 85.3 |
| 0.183 | 0.146 | C[C@H]1O[C@@H](O[C@H]2[C@@H](O)C[C@H](O[C@H]3[C@@H](O)C[C@H](O[C@H]4CC[C@@]5(C)[C@H](CC[C@@H]6[C@@H]5C[C@@H](O)[C@]5(C)[C@@H](C7=CC(=O)OC7)CC[C@]65O)C4)O[C@@H]3C)O[C@@H]2C)C[C@H](O)[C@@H]1O [Digoxin] | 76.2 | 83.8 |
| > 45.8 | 29.1 | COc1cc(C(=O)OCCCN2CCCN(CCCOC(=O)c3cc(OC)c(OC)c(OC)c3)CC2)cc(OC)c1OC [Dilazep] |  | 51.1 |
| 29.1 | > 45.8 | O=c1c(-c2ccccc2)c1-c1ccccc1 [Diphenylcyclopropenone] | 100 |  |
| 1.42 | 1.27 | [O-][n+]1ccccc1SSc1cccc[n+]1[O-] [Dipyrithione] | 83.9 | 74.7 |
| 23.1 | 20.6 | CCN1\C(=C/C=C/C=C/c2sc3ccccc3[n+]2CC)Sc2ccccc21 [Dithiazanine chloride] | 96.7 | 99 |
| > 45.8 | 23.1 | CC(CCc1ccc(O)cc1)NCCc1ccc(O)c(O)c1 (stereo not drawn) [Dobutamine] |  | 83.3 |
| 0.0103 | 0.0146 | CC(=O)O[C@@]12CO[C@@H]1C[C@H](O)[C@@]1(C)C(=O)[C@H](O)C3=C(C)[C@@H](OC(=O)[C@H](O)[C@@H](NC(=O)OC(C)(C)C)c4ccccc4)C[C@@](O)([C@@H](OC(=O)c4ccccc4)[C@H]21)C3(C)C [Docetaxel] | 60.8 | 56.5 |
| 10.3 | 8.2 | CCCCCCCCCCCC[N+](C)(C)CCOc1ccccc1 [Domiphen bromide] | 101 | 90.4 |
| > 45.8 | 18.3 | Oc1ccc(CCNCCCCCCNCCc2ccccc2)cc1O [Dopexamine] |  | 47.3 |
| 20.6 | 29.1 | CN(C)CC/C=C1\c2ccccc2CSc2ccccc21 [Dosulepin hydrochloride] | 67.8 | 69.1 |
| 29.1 | 18.3 | COc1cc2nc(N3CCN(C(=O)C4COc5ccccc5O4)CC3)nc(N)c2cc1OC (stereo not drawn) [Doxazosin mesylate] | 106 | 95.6 |
| 29.1 | 29.1 | C=C1/C(=C\C=C2/CCC[C@]3(C)[C@@H]([C@H](C)/C=C/[C@H](C)C(C)C)CC[C@@H]23)C[C@@H](O)C[C@@H]1O [Doxercalciferol] | 101 | 102 |
| 16.4 | 23.1 | C[C@H]1c2cccc(O)c2C(=O)C2=C(O)[C@]3(O)C(=O)C(C(N)=O)=C(O)[C@@H](N(C)C)[C@@H]3[C@@H](O)[C@@H]21 [Doxycycline] | 41.6 | 62.7 |
